Reference: patent US20230167122A1, “PESTICIDALLY ACTIVE HETEROCYCLIC DERIVATIVES WITH SULFUR CONTAINING SUBSTITUENTS” (SYNGENTA CROP PROTECTION AG, priority 2020, published 2023)

What was measured:
Assay type in all cases: in vivo
[1] = test system: Euschistus heros (Neotropical Brown Stink Bug); experiment: Example B3: Activity against Euschistus heros (neotropical brown stink bug), sprayed soybean leaf; conditions: 120 h, application rate of 200 ppm, N-2 nymphs on soybean leaf, 5 days after infestation, read-out: effect in at least one of the two categories (mortality or growth inhibition)
Method: Example B3: Activity Against Euschistus heros (Neotropical Brown Stink Bug)
Soybean leaf on agar in 24-well microtiter plates were sprayed with aqueous test solutions prepared from 10′000 ppm DMSO stock solutions. After drying the leaf were infested with N-2 nymphs. The samples were assessed for mortality and growth inhibition in comparison to untreated samples 5 days after infestation.

[2] = test system: Diabrotica balteata (Corn Root Worm); experiment: Example B2: Activity against Diabrotica balteata (corn root worm), sprayed maize sprouts; conditions: 96 h, application rate of 200 ppm, L2 larvae on maize sprouts, 4 days after infestation, read-out: effect in at least one of the two categories (mortality or growth inhibition)
Method: Example B2: Activity Against Diabrotica balteata (Corn Root Worm)
Maize sprouts placed onto an agar layer in 24-well microtiter plates were treated with aqueous test solutions prepared from 10′000 ppm DMSO stock solutions by spraying. After drying, the plates were infested with L2 larvae (6 to 10 per well). The samples were assessed for mortality and growth inhibition in comparison to untreated samples 4 days after infestation.

[3] = test system: Bemisia tabaci (Cotton White Fly); experiment: Example B1: Activity against Bemisia tabaci (cotton white fly), sprayed cotton leaf discs; conditions: foliar, 144 h, application rate of 200 ppm, adult white flies on cotton leaf discs, 6 days after incubation
Method: Example B1: Activity Against Bemisia tabaci (Cotton White Fly)
Cotton leaf discs were placed on agar in 24-well microtiter plates and sprayed with aqueous test solutions prepared from 10′000 ppm DMSO stock solutions. After drying the leaf discs were infested with adult white flies. The samples were checked for mortality 6 days after incubation.

[4] = test system: Nilaparvata lugens (Brown Plant Hopper); experiment: Example B12: Activity against Nilaparvata lugens (brown plant hopper), larvicide, systemic into water; conditions: 168 h, application rate of 12.5 ppm, systemic into nutritive solution, rice plants, N3 nymphs, 7 days after infestation
Method: Example B12: Activity Against Nilaparvata lugens (Brown Plant Hopper) Larvicide, Systemic into Water
Rice plants cultivated in a nutritive solution were treated with the diluted test solutions into nourishing cultivation system. 1 day after application plants were infested with ˜20 N3 nymphs. 7 days after infestation samples were assessed for mortality and growth regulation.

[5] = test system: Spodoptera littoralis (Egyptian Cotton Leaf Worm); experiment: Example B9: Activity against Spodoptera littoralis (Egyptian cotton leaf worm), sprayed cotton leaf discs; conditions: foliar, 72 h, application rate of 200 ppm, L1 larvae on cotton leaf discs, 3 days after infestation
Method: Example B9: Activity Against Spodoptera littoralis (Egyptian Cotton Leaf Worm)
Cotton leaf discs were placed onto agar in 24-well microtiter plates and sprayed with aqueous test solutions prepared from 10′000 ppm DMSO stock solutions. After drying the leaf discs were infested with five L1 larvae. The samples were assessed for mortality, anti-feeding effect, and growth inhibition in comparison to untreated samples 3 days after infestation. Control of Spodoptera littoralis by a test sample is given when at least one of the categories mortality, anti-feedant effect, and growth inhibition is higher than the untreated sample.

[6] = test system: Tetranychus urticae (Two-Spotted Spider Mite); experiment: Example B10: Activity against Tetranychus urticae (two-spotted spider mite), sprayed bean leaf discs; conditions: foliar, 192 h, application rate of 200 ppm, mixed population (mobile stages) on bean leaf discs, 8 days after infestation
Method: Example B10: Activity Against Tetranychus urticae (Two-Spotted Spider Mite)
Bean leaf discs on agar in 24-well microtiter plates were sprayed with aqueous test solutions prepared from 10′000 ppm DMSO stock solutions. After drying the leaf discs were infested with a mite population of mixed ages. The samples were assessed for mortality on mixed population (mobile stages) 8 days after infestation.

[7] = test system: Myzus persicae (Green Peach Aphid); experiment: Example B6: Activity against Myzus persicae (green peach aphid), sprayed sunflower leaf discs; conditions: foliar, 144 h, application rate of 200 ppm, aphid population of mixed ages on sunflower leaf discs, 6 days after infestation
Method: Example B6: Activity Against Myzus persicae (Green Peach Aphid)
Sunflower leaf discs were placed on agar in a 24-well microtiter plate and sprayed with aqueous test solutions prepared from 10′000 ppm DMSO stock solutions. After drying, the leaf discs were infested with an aphid population of mixed ages. The samples were assessed for mortality 6 days after infestation.

[8] = test system: Plutella xylostella (Diamond Back Moth); experiment: Example B5: Activity against Plutella xylostella (diamond back moth), eggs, artificial diet; conditions: 192 h, application rate of 200 ppm, 8 days after infestation, read-out: effect in at least one of the two categories (mortality or growth inhibition)
Method: Example B5: Activity Against Plutella xylostella (Diamond Back Moth)
24-well microtiter plates with artificial diet were treated with aqueous test solutions prepared from 10′000 ppm DMSO stock solutions by pipetting. After drying, Plutella eggs were pipetted through a plastic stencil onto a gel blotting paper and the plate was closed with it. The samples were assessed for mortality and growth inhibition in comparison to untreated samples 8 days after infestation.

[9] = test system: Nilaparvata lugens (Brown Plant Hopper); experiment: Example B11: Activity against Nilaparvata lugens (brown plant hopper), larvicide, feeding/contact; conditions: 168 h, application rate of 50 ppm, N3 nymphs on sprayed rice plants, 7 days after the treatment
Method: Example B11: Activity Against Nilaparvata lugens (Brown Plant Hopper) Larvicide, Feeding/Contact
Rice plants were treated with the diluted test solutions in a spray chamber. After drying plants were infested with ˜20 N3 nymphs. 7 days after the treatment samples were assessed for mortality and growth regulation.

[10] = test system: Plutella xylostella (Diamond Back Moth); experiment: Example B8: Activity against Plutella xylostella (diamond back moth), L2 larvae, artificial diet; conditions: 120 h, application rate of 200 ppm, 5 days after infestation, read-out: effect in at least one of the two categories (mortality or growth inhibition)
Method: Example B8: Activity Against Plutella xylostella (Diamond Back Moth)
24-well microtiter plates with artificial diet were treated with aqueous test solutions prepared from 10′000 ppm DMSO stock solutions by pipetting. After drying, the plates were infested with L2 larvae (10 to 15 per well). The samples were assessed for mortality and growth inhibition in comparison to untreated samples 5 days after infestation.

[11] = test system: Myzus persicae (Green Peach Aphid); experiment: Example B7: Activity against Myzus persicae (green peach aphid), roots of pea seedlings in test solution; conditions: 144 h, test rate of 24 ppm, roots of infested pea seedlings in test solution, 6 days
Method: Example B7: Activity Against Myzus persicae (Green Peach Aphid)
Roots of pea seedlings infested with an aphid population of mixed ages were placed directly in the aqueous test solutions prepared from 10′000 DMSO stock solutions. The samples were assessed for mortality 6 days after placing seedlings in test solutions.

[12] = test system: Carpocapsa (Cydia) pomonella (Codling Moth); experiment: Example B15: Activity against Carpocapsa (Cydia) pomonella (codling moth), larvicide, feeding/contact; conditions: 336 h, application rate of 12.5 ppm, L1 larvae on sprayed diet cubes, 14 days after infestation, read-out: effect in at least one of the two categories (mortality or growth inhibition)
Method: Example B15: Activity Against Carpocapsa (Cydia) pomonella (Codling Moth), Larvicide, Feeding/Contact
Diet cubes coated with paraffin were sprayed with diluted test solutions in an application chamber. After drying off the treated cubes (10 replicates) were infested with 1 L1 larvae. Samples were incubated at 26-27° C. and checked 14 days after infestation for mortality and growth inhibition.

Cn1c(-c2ncc(OC(C)(C)C#N)cc2S(=O)(=O)CC2CC2)nc2cc(C(F)(F)F)nnc21 [Compound P1, 2-[[5-(cyclopropylmethylsulfonyl)-6-[7-methyl-3-(trifluoromethyl)imidazo[4,5-c]pyridazin-6-yl]-3-pyridyl]oxy]-2-methyl-propanenitrile]
≥ 80%: percent effect (mortality or growth inhibition) at 200 ppm [1] | percent effect (mortality or growth inhibition) at 200 ppm [2] | mortality at 200 ppm [3] | mortality at 12.5 ppm [4] | percent control (mortality, anti-feedant effect or growth inhibition) at 200 ppm [5] | mortality at 200 ppm [6] | mortality at 200 ppm [7] | percent effect (mortality or growth inhibition) at 200 ppm [8] | mortality at 50 ppm [9]

CCS(=O)(=O)c1cc(OC(C)(C)C#N)cnc1-c1nc2cc(C(F)(F)F)nnc2n1C [Compound P2, 2-[[5-ethylsulfonyl-6-[7-methyl-3-(trifluoromethyl)imidazo[4,5-c]pyridazin-6-yl]-3-pyridyl]oxy]-2-methyl-propanenitrile]
≥ 80%: percent effect (mortality or growth inhibition) at 200 ppm [1] | percent effect (mortality or growth inhibition) at 200 ppm [2] | mortality at 200 ppm [3] | percent effect (mortality or growth inhibition) at 200 ppm [10] | mortality at 12.5 ppm [4] | percent control (mortality, anti-feedant effect or growth inhibition) at 200 ppm [5] | mortality at 24 ppm [11] | mortality at 200 ppm [7] | mortality at 50 ppm [9]

CCS(=O)(=O)c1cc(OC(C)(C)C#N)c(C)nc1-c1nc2cc(C(F)(F)F)cnc2n1C [Compound P4, 2-[[5-ethylsulfonyl-2-methyl-6-[3-methyl-6-(trifluoromethyl)imidazo[4,5-b]pyridin-2-yl]-3-pyridyl]oxy]-2-methyl-propanenitrile]
≥ 80%: percent effect (mortality or growth inhibition) at 200 ppm [1] | percent effect (mortality or growth inhibition) at 200 ppm [2] | mortality at 200 ppm [3] | percent effect (mortality or growth inhibition) at 200 ppm [10] | mortality at 12.5 ppm [4] | percent control (mortality, anti-feedant effect or growth inhibition) at 200 ppm [5] | mortality at 200 ppm [6] | percent effect (mortality or growth inhibition) at 12.5 ppm [12] | mortality at 200 ppm [7]

CCS(=O)(=O)c1cc(OC(C)(C)C#N)cnc1-c1nc2cc(C(F)(F)F)n(OC)c(=O)c2n1C [Compound P5, 2-[[5-ethylsulfonyl-6-[5-methoxy-3-methyl-4-oxo-6-(trifluoromethyl)imidazo[4,5-c]pyridin-2-yl]-3-pyridyl]oxy]-2-methyl-propanenitrile]
≥ 80%: percent effect (mortality or growth inhibition) at 200 ppm [1] | percent effect (mortality or growth inhibition) at 200 ppm [2] | mortality at 200 ppm [3] | percent effect (mortality or growth inhibition) at 200 ppm [10] | mortality at 12.5 ppm [4] | percent control (mortality, anti-feedant effect or growth inhibition) at 200 ppm [5] | mortality at 200 ppm [6] | percent effect (mortality or growth inhibition) at 12.5 ppm [12] | mortality at 24 ppm [11] | mortality at 200 ppm [7]

CCS(=O)(=O)c1cc(OC(C)(C)C#N)c(C)nc1-c1nc2cc(C(F)(F)F)nnc2n1C [Compound P11, 2-[[5-ethylsulfonyl-2-methyl-6-[7-methyl-3-(trifluoromethyl)imidazo[4,5-c]pyridazin-6-yl]-3-pyridyl]oxy]-2-methyl-propanenitrile]
≥ 80%: percent effect (mortality or growth inhibition) at 200 ppm [1] | percent effect (mortality or growth inhibition) at 200 ppm [2] | mortality at 200 ppm [3] | percent effect (mortality or growth inhibition) at 200 ppm [10] | mortality at 12.5 ppm [4] | percent control (mortality, anti-feedant effect or growth inhibition) at 200 ppm [5] | percent effect (mortality or growth inhibition) at 12.5 ppm [12] | mortality at 24 ppm [11] | mortality at 200 ppm [7] | mortality at 50 ppm [9]

CCS(=O)(=O)c1cc(OC(C)(C)C#N)cnc1-c1nc2cc3c(cc2n1C)OC(F)(F)O3 [Compound P15, 2-[[6-(2,2-difluoro-7-methyl-[1,3]dioxolo[4,5-f]benzimidazol-6-yl)-5-ethylsulfonyl-3-pyridyl]oxy]-2-methyl-propanenitrile]
≥ 80%: percent effect (mortality or growth inhibition) at 200 ppm [1] | percent effect (mortality or growth inhibition) at 200 ppm [2] | mortality at 200 ppm [3] | percent control (mortality, anti-feedant effect or growth inhibition) at 200 ppm [5] | percent effect (mortality or growth inhibition) at 12.5 ppm [12] | mortality at 200 ppm [7] | percent effect (mortality or growth inhibition) at 200 ppm [8]

CCS(=O)(=O)c1cc(OC(C)(C)C#N)cnc1-c1nc2cc3c(cc2o1)OC(F)(F)O3 [Compound P16, 2-[[6-(2,2-difluoro-[1,3]dioxolo[4,5-f][1,3]benzoxazol-6-yl)-5-ethylsulfonyl-3-pyridyl]oxy]-2-methyl-propanenitrile]
≥ 80%: percent effect (mortality or growth inhibition) at 200 ppm [1] | percent effect (mortality or growth inhibition) at 200 ppm [2] | percent control (mortality, anti-feedant effect or growth inhibition) at 200 ppm [5] | percent effect (mortality or growth inhibition) at 12.5 ppm [12] | mortality at 200 ppm [7] | percent effect (mortality or growth inhibition) at 200 ppm [8]
